Key:
[1] = molecular target: T1, N-acylethanolamine-hydrolyzing acid amidase (Homo sapiens, UniProt Q02083); experiment: Fluorogenic Assay: The assay was run in Optiplate 96-wells black plates, in a total reaction volume of 200 μL. NAAA protein preparation (4.0 μg) was pre-incubated for 10 min with various concentrations of test compounds or vehicle control (5% DMSO) in 100 mM citrate/phosphate buffer (pH 4.5) containing 3.0 mM DTT, 0.1% Triton X-100, 0.05% BSA, 150 mM NaCl. N-(4-methyl-2-oxo-chromen-7-yl)-hexadecanamide was used as a substrate (5.0 μM) and the reaction carried over for 30 min at 37° C. The samples were then read in a Perkin Elmer Envision plate reader using an excitation wavelength of 360 nm and emission 460 nm.
T1 sequence (Q02083 whole entry): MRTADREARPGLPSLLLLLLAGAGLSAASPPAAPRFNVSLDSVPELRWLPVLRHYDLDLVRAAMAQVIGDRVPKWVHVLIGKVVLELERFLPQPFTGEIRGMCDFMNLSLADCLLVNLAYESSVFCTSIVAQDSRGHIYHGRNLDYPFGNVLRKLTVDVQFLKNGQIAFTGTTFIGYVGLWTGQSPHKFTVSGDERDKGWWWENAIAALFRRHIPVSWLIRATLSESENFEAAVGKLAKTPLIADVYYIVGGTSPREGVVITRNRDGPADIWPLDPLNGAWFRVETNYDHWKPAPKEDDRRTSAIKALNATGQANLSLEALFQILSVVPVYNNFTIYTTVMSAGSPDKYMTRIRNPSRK

[2] = molecular target: T2, N-acylethanolamine-hydrolyzing acid amidase (Rattus norvegicus, UniProt Q5KTC7); experiment: Enzymatic Assay: Lysosomal NAAA protein preparation were obtained by homogenizing male Sprague-Dawley rat lungs (Charles River) in 20 mM Tris-HCl buffer pH 7.4 containing 0.32M sucrose. Samples were centrifuged at 800×g for 15 minutes at 4° C. Supernatants were then centrifuged at 12,000 g for 30 minutes at 4° C. Pellets were then resuspended in PBS pH 7.4 and subjected to a freeze/thaw cycle at −80° C. The suspension was finally centrifuged at 105,000×g for 1 hour at 4° C. The supernatant was then used in the enzymatic assay.
T2 sequence (Q5KTC7 whole entry): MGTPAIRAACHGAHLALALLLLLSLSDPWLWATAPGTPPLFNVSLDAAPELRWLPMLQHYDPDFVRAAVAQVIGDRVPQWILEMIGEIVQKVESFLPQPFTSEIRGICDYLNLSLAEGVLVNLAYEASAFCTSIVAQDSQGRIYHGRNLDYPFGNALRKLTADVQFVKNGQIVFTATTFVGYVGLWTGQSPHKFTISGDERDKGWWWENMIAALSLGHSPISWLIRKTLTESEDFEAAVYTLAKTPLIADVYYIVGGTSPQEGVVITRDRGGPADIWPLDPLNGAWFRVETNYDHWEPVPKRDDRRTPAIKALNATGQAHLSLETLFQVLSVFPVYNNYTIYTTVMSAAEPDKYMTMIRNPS

[3] = molecular target: T1, N-acylethanolamine-hydrolyzing acid amidase; experiment: UPLC/MS Assay: NAAA protein preparation (10 ug) was pre-incubated with various concentrations of test compound or vehicle control in 100 mM NaH2PO4, 100 mM Tri Sodium Citrate Dehydrate, 0.1% Triton-X 100, 3 mM DTT, pH 4.5 for 30 min at 37° C. Duplicate samples were then incubated with 50 uM C17:1 10-cis-heptadecenoylethanolamide (Avanti Polar Lipids, Alabaster, Ala. USA) at 37° C. for 30 minutes. The reaction was terminated by the addition of 0.2 mL of cold methanol containing 1 nmol of heptadecanoic acid (NuChek Prep, Elysian, Minn. USA) as internal standard. Samples were then analyzed by UPLC/MS. Heptadecenoic and heptadecanoic acids were eluted on an Acquity UPLC BEH C18 column (50 mm length, 2.1 mm i.d., 1.7 um pore size, Waters) isocratically at 0.5 mL/min for 1.5 min with a solvent mixture of 95% methanol and 5% water, both containing 0.25% Acetic Acid and 5 mM Ammonium Acetate. The column temperature was 40° C. Electrospray ionization was in the negative mode, capillary voltage was 0.5 kV, […], desolvation temperature was 500° C. N2 was used as drying gas at a flow rate of 1000 L/hour and a temperature of 500° C. The [M-H]- ion was monitored in the selected-ion monitoring mode (m/z values: heptadecenoic acid 267.37, heptadecanoic acid 269.37). Calibration curves were generated using commercial heptadecenoic acid (NuCheck Prep). […]

IC50 [3] [nM]	SMILES	IC50 [1] [nM]	IC50 [2] [nM]
	CC[C@@H]1OC(=O)[C@@H]1NC(=O)OCc1ccc(-c2ccccc2)cc1 (relative stereo)	15	
	CC(C)(C)[C@@H]1OC(=O)[C@@H]1NC(=O)OCc1ccc(-c2ccccc2)cc1 (relative stereo)	897	
	CC(C)[C@H]1OC(=O)[C@@H]1NC(=O)OCc1ccc(-c2ccccc2)cc1 (relative stereo)	23	
	CC(C)(C)[C@H]1OC(=O)[C@@H]1NC(=O)OCc1ccc(-c2ccccc2)cc1 (relative stereo)	465	
	CC[C@H]1OC(=O)[C@@H]1NC(=O)OCc1ccc(-c2ccccc2)cc1 (relative stereo)	6	
10	CC(OC(=O)N[C@H]1C(=O)O[C@H]1C)c1ccc(-c2ccccc2)cc1 (mixture of isomers)		50
	CC(C)[C@@H]1OC(=O)[C@@H]1NC(=O)OCc1ccc(-c2ccccc2)cc1 (relative stereo)	37	
	C[C@@H]1OC(=O)[C@@H]1NC(=O)OCc1ccc(-c2ccc(C(F)(F)F)cc2)cc1		24

— ChEMBL document CHEMBL3886751, “Disubstituted beta-lactones as inhibitors of N-acylethanolamine acid amidase (NAAA)” (2016)
